According to ChEMBL document CHEMBL6087465, “Design, Synthesis, and Antitumor Activity Evaluation of 2-Phenylthiazole-5-Carboxylic Acid Derivatives Targeting Transactivation Response RNA-Binding Protein 2” (J Med Chem, 2025):
Active and inactive are the calls of the source. The rule behind the calls is not given here.

Legend:
[1] = Acute toxicity in Kunming mouse assessed as pathological change in spleen at 100 mg/kg,ip administration measured after 14 days by hematoxylin and eosin staining based microscopic analysis; assay type: organism-based; conditions: in vivo, 336 h, time 14 day
[2] = MRT (0 to infinity) in Sprague-Dawley rat at 10 mg/kg,iv administration by LC-MS/MS analysis; assay type: ADME, organism-based; conditions: in vivo
[3] = AUC (0 to infinity) in Sprague-Dawley rat at 25 mg/kg,po administration by LC-MS/MS analysis; assay type: ADME, organism-based; conditions: in vivo
[4] = Acute toxicity in Kunming mouse assessed as effect on ALT level in liver at 100 mg/kg,ip administration measured after 14 days; assay type: organism-based; conditions: in vivo, 336 h, time 14 day
[5] = MRT (0 to t) in Sprague-Dawley rat at 25 mg/kg,po administration by LC-MS/MS analysis; assay type: ADME, organism-based; conditions: in vivo
SK-HEP1 [6] = experiment: Antiproliferative activity against human SK-HEP1 cells cultured as 3D cells assessed as inhibition of cell growth at 25 uM incubated for 72 hrs by CellTiter-Lumi assay; assay type: functional, cell-based
[7] = AUC (0 to t) in Sprague-Dawley rat at 10 mg/kg,iv administration by LC-MS/MS analysis; assay type: ADME, organism-based; conditions: in vivo
[8] = Clearance in Sprague-Dawley rat at 10 mg/kg,iv administration by LC-MS/MS analysis; assay type: ADME, organism-based; conditions: in vivo
[9] = Oral bioavailability in Sprague-Dawley rat at 25 mg/kg administration by LC-MS/MS analysis; assay type: ADME, organism-based; conditions: in vivo
[10] = Acute toxicity in Kunming mouse assessed as pathological change in lung at 100 mg/kg,ip administration measured after 14 days by hematoxylin and eosin staining based microscopic analysis; assay type: organism-based; conditions: in vivo, 336 h, time 14 day
HCCLM3 [11] = experiment: Antiproliferative activity against TARBP2-knockout human HCCLM3 cells cultured as 3D cells assessed as inhibition of cell growth at 25 uM incubated for 72 hrs by CellTiter-Lumi assay; assay type: functional, cell-based
Homo sapiens = species: Homo sapiens; experiment: Inhibition of recombinant human TRBP/recombinant human Dicer protein protein interaction at 25 uM by indirect-competition-ELISA
HCCLM3 [12] = experiment: Inhibition of cell migration in human HCCLM3 cells at 10 uM incubated for 24 hrs by wound healing assay; assay type: functional, cell-based
HCCLM3 [13] = experiment: Antiproliferative activity against human HCCLM3 cells cultured as 2D cells assessed as inhibition of cell growth at 10 uM incubated for 72 hrs by CCK-8 assay; assay type: functional, cell-based
[14] = Half life in Sprague-Dawley rat at 10 mg/kg,iv administration by LC-MS/MS analysis; assay type: ADME, organism-based; conditions: in vivo
[15] = Acute toxicity in Kunming mouse assessed as effect on total bilirubin level in liver at 100 mg/kg,ip administration measured after 14 days; assay type: organism-based; conditions: in vivo, 336 h, time 14 day
SK-HEP1 [16] = experiment: Inhibition of cell migration in human SK-HEP1 cells at 10 uM incubated for 24 hrs by wound healing assay; assay type: functional, cell-based
[17] = Acute toxicity in Kunming mouse assessed as effect on uric acid level in kidney at 100 mg/kg,ip administration measured after 14 days; assay type: organism-based; conditions: in vivo, 336 h, time 14 day
[18] = Tmax in Sprague-Dawley rat at 25 mg/kg,po administration by LC-MS/MS analysis; assay type: ADME, organism-based; conditions: in vivo
[19] = Cmax in Sprague-Dawley rat at 25 mg/kg,po administration by LC-MS/MS analysis; assay type: ADME, organism-based; conditions: in vivo
[20] = Acute toxicity in Kunming mouse assessed as effect on urea level in kidney at 100 mg/kg,ip administration measured after 14 days; assay type: organism-based; conditions: in vivo, 336 h, time 14 day
[21] = MRT (0 to t) in Sprague-Dawley rat at 10 mg/kg,iv administration by LC-MS/MS analysis; assay type: ADME, organism-based; conditions: in vivo
HCCLM3 [22] = experiment: Inhibition of cell migration in human HCCLM3 cells incubated for 24 hrs by transwell assay; assay type: functional, cell-based
[23] = Tmax in Sprague-Dawley rat at 10 mg/kg,iv administration by LC-MS/MS analysis; assay type: ADME, organism-based; conditions: in vivo
SK-HEP1 [24] = experiment: Antiproliferative activity against human SK-HEP1 cells cultured as 3D cells assessed as inhibition of cell growth at 10 uM incubated for 72 hrs by CellTiter-Lumi assay; assay type: functional, cell-based
[25] = Acute toxicity in Kunming mouse assessed as body weight loss at 100 mg/kg,ip administration measured after 14 days; assay type: organism-based; conditions: in vivo, 336 h, time 14 day
[26] = Acute toxicity in Kunming mouse assessed as pathological change in kidney at 100 mg/kg,ip administration measured after 14 days by hematoxylin and eosin staining based microscopic analysis; assay type: organism-based; conditions: in vivo, 336 h, time 14 day
HCCLM3 [27] = experiment: Inhibition of cell migration in TARBP2-knockout human HCCLM3 cells at 1 to 25 uM incubated for 24 hrs by transwell assay; assay type: functional, cell-based; conditions: dose 1-25 µM
[28] = Acute toxicity in Kunming mouse assessed as effect on AST level in liver at 100 mg/kg,ip administration measured after 14 days; assay type: organism-based; conditions: in vivo, 336 h, time 14 day
HCCLM3 [29] = experiment: Antiproliferative activity against human HCCLM3 cells assessed as upregulation of SMAD7 expression incubated for 24 hrs by Western blotting analysis; assay type: functional, cell-based
HCCLM3 [30] = experiment: Antiproliferative activity against human HCCLM3 cells cultured as 3D cells assessed as inhibition of colony formation at 25 uM incubated for 21 days by 3D soft-agar based microscopic analysis; assay type: functional, cell-based; conditions: time 21.0 day
HCCLM3 [31] = experiment: Inhibition of cell migration in human HCCLM3 cells at 10 uM incubated for 24 hrs by transwell assay; assay type: functional, cell-based
HCCLM3 [32] = experiment: Antiproliferative activity against human HCCLM3 cells assessed as downregulation of SMAD3 phosphorylation incubated for 24 hrs by Western blotting analysis; assay type: functional, cell-based
SK-HEP1 [33] = experiment: Antiproliferative activity against TARBP2-knockout human SK-HEP1 cells cultured as 3D cells assessed as inhibition of cell growth at 25 uM incubated for 72 hrs by CellTiter-Lumi assay; assay type: functional, cell-based
[34] = Acute toxicity in Kunming mouse assessed as effect on creatine kinase level in heart at 100 mg/kg,ip administration measured after 14 days; assay type: organism-based; conditions: in vivo, 336 h, time 14 day
[35] = Acute toxicity in Kunming mouse assessed as animal death at 100 mg/kg,ip administration measured after 14 days; assay type: organism-based; conditions: in vivo, 336 h, time 14 day
HCCLM3 [36] = experiment: Antiproliferative activity against human HCCLM3 cells assessed as downregulation of SMAD2 phosphorylation incubated for 24 hrs by Western blotting analysis; assay type: functional, cell-based
[37] = Half life in Sprague-Dawley rat at 25 mg/kg,po administration by LC-MS/MS analysis; assay type: ADME, organism-based; conditions: in vivo
[38] = Volume of distribution at steady state in Sprague-Dawley rat at 10 mg/kg,iv administration by LC-MS/MS analysis; assay type: ADME, organism-based; conditions: in vivo, read-out: Vdss
[39] = Acute toxicity in Kunming mouse assessed as effect on direct bilirubin level in liver at 100 mg/kg,ip administration measured after 14 days; assay type: organism-based; conditions: in vivo, 336 h, time 14 day
[40] = Cmax in Sprague-Dawley rat at 10 mg/kg,iv administration by LC-MS/MS analysis; assay type: ADME, organism-based; conditions: in vivo
SK-HEP1 [41] = experiment: Inhibition of cell migration in human SK-HEP1 cells incubated for 24 hrs by transwell assay; assay type: functional, cell-based
[42] = Acute toxicity in Kunming mouse assessed as effect on ALB level in liver at 100 mg/kg,ip administration measured after 14 days; assay type: organism-based; conditions: in vivo, 336 h, time 14 day
SK-HEP1 [43] = experiment: Antiproliferative activity against human SK-HEP1 cells cultured as 2D cells assessed as inhibition of cell growth at 10 uM incubated for 72 hrs by CCK-8 assay; assay type: functional, cell-based

Structure (SMILES): Cc1nc(-c2ccc(N3CCOCC3)cc2)sc1C(=O)O
- Activity [1]: Non-toxic
- MRT inf [2]: 1.8 h
- AUC(0-inf) [3]: 50600 ng·h/mL
- Activity [4]: Non-toxic
- MRT last [5]: 3.5 h
- Activity (SK-HEP1 [6]): Active
- AUC(0-t) [7]: 37400 ng·h/mL
- clearance [8]: 4.6 mL/min/kg
- bioavailability [9]: 53.9%
- Activity [10]: Non-toxic
- Activity (HCCLM3 [11]): inactive
- inhibition (Homo sapiens): Active
- inhibition (HCCLM3 [12]): Active
- Activity (HCCLM3 [13]): inactive
- half-life [14]: 3.57 h
- Activity [15]: Non-toxic
- inhibition (SK-HEP1 [16]): Active
- Activity [17]: Non-toxic
- Tmax [18]: 0.42 h
- Cmax [19]: 19800 ng/mL
- Activity [20]: Non-toxic
- MRT last [21]: 1.7 h
- inhibition (HCCLM3 [22]): Dose-dependent-effect
- Tmax [23]: 4.8 min
- Activity (SK-HEP1 [24]): Active
- Activity [25]: Non-toxic
- Activity [26]: Non-toxic
- inhibition (HCCLM3 [27]): inactive
- Activity [28]: Non-toxic
- Activity (HCCLM3 [29]): Dose-dependent-effect
- Activity (HCCLM3 [30]): Active
- inhibition (HCCLM3 [31]): Active
- Activity (HCCLM3 [32]): Dose-dependent-effect
- Activity (SK-HEP1 [33]): inactive
- Activity [34]: Non-toxic
- Activity [35]: Non-toxic
- Activity (HCCLM3 [36]): Dose-dependent-effect
- half-life [37]: 3.28 h
- Vd [38]: 0.496 L/kg
- Activity [39]: Non-toxic
- Cmax [40]: 45900 ng/mL
- inhibition (SK-HEP1 [41]): Dose-dependent-effect
- Activity [42]: Non-toxic
- Activity (SK-HEP1 [43]): inactive

Structure (SMILES): CCOc1ccc(-c2nc(C)c(C(=O)O)s2)cc1
- Activity [1]: Non-toxic
- MRT inf [2]: 0.2 h
- AUC(0-inf) [3]: 3080 ng·h/mL
- Activity [4]: Non-toxic
- MRT last [5]: 2.6 h
- Activity (SK-HEP1 [6]): Active
- AUC(0-t) [7]: 9730 ng·h/mL
- clearance [8]: 17.1 mL/min/kg
- bioavailability [9]: 11%
- Activity [10]: Non-toxic
- Activity (HCCLM3 [11]): inactive
- inhibition (Homo sapiens): Active
- inhibition (HCCLM3 [12]): Active
- Activity (HCCLM3 [13]): inactive
- half-life [14]: 1.6 h
- Activity [15]: Non-toxic
- inhibition (SK-HEP1 [16]): Active
- Activity [17]: Non-toxic
- Tmax [18]: 0.3 h
- Cmax [19]: 2210 ng/mL
- Activity [20]: Non-toxic
- MRT last [21]: 0.1 h
- inhibition (HCCLM3 [22]): Dose-dependent-effect
- Tmax [23]: 6 min
- Activity (SK-HEP1 [24]): Active
- Activity [25]: Non-toxic
- Activity [26]: Non-toxic
- inhibition (HCCLM3 [27]): inactive
- Activity [28]: Non-toxic
- Activity (HCCLM3 [29]): Dose-dependent-effect
- Activity (HCCLM3 [30]): Active
- inhibition (HCCLM3 [31]): Active
- Activity (HCCLM3 [32]): Dose-dependent-effect
- Activity (SK-HEP1 [33]): inactive
- Activity [34]: Non-toxic
- Activity [35]: Non-toxic
- Activity (HCCLM3 [36]): Dose-dependent-effect
- half-life [37]: 2.7 h
- Vd [38]: 0.161 L/kg
- Activity [39]: Non-toxic
- Cmax [40]: 34900 ng/mL
- inhibition (SK-HEP1 [41]): Dose-dependent-effect
- Activity [42]: Non-toxic
- Activity (SK-HEP1 [43]): inactive
